Source: patent US20260232851A1, “METHODS FOR THE DETECTION AND DIAGNOSIS OF CANCERS ASSOCIATED WITH OVEREXPRESSION OF PSMA RECEPTOR” (CLARITY PHARMACEUTICALS LIMITED, priority 2023, published 2026)

Experiments:
PSMA receptor = target: T1, PSMA receptor (Homo sapiens, UniProt Q04609); assay: Same-day (Day 0) versus next-day (Day 1) PET imaging of patients; assay type: in vivo; conditions: ^18F-labelled ligand as SOC
T1 construct: localises at sites that overexpress the PSMA receptor and are indicative of a cancer; from tissue; host or cells: Primary prostate cancer and metastatic lesions (lymph node, bone, prostatic bed) in living patients

LNCap tumor = conditions: mouse, in vivo
From the text: Ex vivo tumor uptake expressed as percentage injected activitiy per gram of tissue (% lAg) (mean±/−SEM, n=3/group) in LNCap tumor bearing NSG mice following injection of either monomeric [^64Cu]Cu-SarPSMA (2 MBq, 0.9 nmol of peptide) or dimeric [^64Cu]Cu-Sar-bisPSMA (2 MBq, 0.2 nmol of peptide).

T1 sequence (Q04609 whole entry): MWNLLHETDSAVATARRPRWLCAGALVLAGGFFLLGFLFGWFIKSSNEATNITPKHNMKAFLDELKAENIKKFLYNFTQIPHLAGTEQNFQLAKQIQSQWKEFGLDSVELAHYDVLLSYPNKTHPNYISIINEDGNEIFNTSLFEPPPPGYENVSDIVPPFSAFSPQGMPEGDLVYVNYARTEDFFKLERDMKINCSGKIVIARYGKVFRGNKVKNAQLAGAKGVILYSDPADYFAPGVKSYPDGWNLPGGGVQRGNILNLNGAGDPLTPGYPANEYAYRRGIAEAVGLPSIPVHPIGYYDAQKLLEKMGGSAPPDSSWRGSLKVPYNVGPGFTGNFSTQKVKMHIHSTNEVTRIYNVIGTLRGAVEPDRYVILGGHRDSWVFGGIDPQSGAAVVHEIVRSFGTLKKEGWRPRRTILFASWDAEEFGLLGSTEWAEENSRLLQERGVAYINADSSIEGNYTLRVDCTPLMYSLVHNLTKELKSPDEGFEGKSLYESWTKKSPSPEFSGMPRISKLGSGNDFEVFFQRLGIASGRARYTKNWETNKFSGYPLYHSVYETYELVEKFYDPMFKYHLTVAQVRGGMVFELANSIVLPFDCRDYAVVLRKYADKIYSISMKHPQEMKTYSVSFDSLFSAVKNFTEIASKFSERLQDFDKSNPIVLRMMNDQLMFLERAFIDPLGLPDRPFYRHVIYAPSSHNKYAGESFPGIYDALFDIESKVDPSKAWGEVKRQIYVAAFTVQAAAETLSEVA

| SMILES | Screening result on SOC PET/CT (FIG. 9A) (PSMA receptor) | Uptake and retention at tumors, dimer versus monomer (FIG. 1) (LNCap tumor) |
| --- | --- | --- |
| O=C(O)CC[C@H](NC(=O)N[C@@H](CCCCNC(=O)c1ccc([18F])nc1)C(=O)O)C(=O)O [^18F-DCFPyL, DCFPyL, reference compound] | negative/equivocal | – |
| CC12CNCCNCC(NC(=O)CCCC(=O)N[C@H](Cc3ccccc3)C(=O)N[C@H](Cc3ccccc3)C(=O)NCCCCCCCC(=O)NCCCC[C@H](NC(=O)N[C@@H](CCC(=O)O)C(=O)O)C(=O)O)(CNCCNC1)CNCCNC2 [^64Cu-SarPSMA, metal not drawn] | – | less uptake and retention |
